The values that follow come from PubChem BioAssay AID264 (DTP/NCI, 2004).

Where “and” joins values, the source holds several entries; their conditions need not be identical. Equal values may be shown once. Records with an inconclusive call do not appear.

This assay has as its system nude mice, LX-1 lung xenograft intrarenal, tumor weight T/C. Nature of the assay: NCI In Vivo Anticancer Drug Screen. Data for tumor model Human Lung LX-1 Xenograft (intrarenal inoculation) in NU/NU Swiss (nude) mice. The conditions noted are these: endpoint: mean tumor weight change, higher = larger tumour. The method, then: The antitumor activity of compounds was measured in mice bearing transplantable tumors. Survival or tumor size were measured and the results are expressed as the measurement made in the treated group (T) divided by the measurement made in the vehicle treated control group (C). The tumor model used in this assay is Human Lung LX-1 Xenograft (intrarenal inoculation) in NU/NU Swiss (nude) mice
Background: In xenograft studies the graft and the host belong to different species.

Where [1] appears, read: dose: 37.5 mg/kg/injection, schedule: Q04DX003 (sc), vehicle: Klucel (hydroxypropylcellulose) (HPC).
Setting [2] is: dose: 300.0 mg/kg/injection, schedule: Q04DX003 (sc), vehicle: Klucel (hydroxypropylcellulose) (HPC).
Setting [3] is: dose: 50.0 mg/kg/injection, schedule: Q04DX003 (sc), vehicle: saline with Tween-80.
Setting [4] is: dose: 100.0 mg/kg/injection, schedule: Q04DX003 (sc), vehicle: saline with Tween-80.
The mark [5] stands for this setting: dose: 25.0 mg/kg/injection, schedule: Q04DX003 (sc), vehicle: saline.
Setting [6] is: dose: 50.0 mg/kg/injection, schedule: Q04DX003 (sc), vehicle: saline.
Setting [7] is: dose: 600.0 mg/kg/injection, schedule: Q04DX003 (sc), vehicle: Klucel (hydroxypropylcellulose) (HPC).
Setting [8] is: dose: 1200.0 mg/kg/injection, schedule: Q04DX003 (sc), vehicle: Klucel (hydroxypropylcellulose) (HPC).

For the molecule `COc1ccc(C(N)=O)cc1N=NN(C)C`, the T/C is, setting by setting: (dose: 12.5 mg/kg/injection, schedule: Q01DX010 (sc), vehicle: Klucel (hydroxypropylcellulose) (HPC)) 9 % of control; (dose: 25.0 mg/kg/injection, schedule: Q01DX010 (sc), vehicle: Klucel (hydroxypropylcellulose) (HPC)) 6 % of control and 15 % of control; under setting [1], 23 % of control; (dose: 50.0 mg/kg/injection, schedule: Q01DX010 (sc), vehicle: Klucel (hydroxypropylcellulose) (HPC)) -25 % of control; (dose: 75.0 mg/kg/injection, schedule: Q04DX003 (sc), vehicle: Klucel (hydroxypropylcellulose) (HPC)) 13 % of control; (dose: 150.0 mg/kg/injection, schedule: Q04DX003 (sc), vehicle: Klucel (hydroxypropylcellulose) (HPC)) 8 % of control. Further, the T/C under setting [2] was 8 % of control.

As for `C=C1N(C)c2ccccc2C1(C)C`, the T/C was 80 % of control under setting [3] and 76 % of control under setting [4].

Take `O=NN(CCCl)C(=O)NCCCl`: the T/C reads like this: (dose: 4.0 mg/kg/injection, schedule: Q01DX010 (sc), vehicle: saline) 44 % of control and 51 % of control and 65 % of control; (dose: 7.5 mg/kg/injection, schedule: Q04DX003 (sc), vehicle: suspension in saline) 90 % of control; (dose: 8.0 mg/kg/injection, schedule: Q01DX010 (sc), vehicle: saline) 16 % of control and 17 % of control; (dose: 13.33 mg/kg/injection, schedule: Q04DX003 (sc), vehicle: saline) 9 % of control; (dose: 15.0 mg/kg/injection, schedule: Q04DX003 (sc), vehicle: suspension in saline) 31 % of control; (dose: 16.0 mg/kg/injection, schedule: Q01DX010 (sc), vehicle: saline) -75 % of control and -72 % of control and -67 % of control. In addition, the T/C was -32 % of control (dose: 26.65 mg/kg/injection, schedule: Q04DX003 (sc), vehicle: saline); 1 % of control (dose: 30.0 mg/kg/injection, schedule: Q04DX003 (sc), vehicle: suspension in saline); -9 % of control and -3 % of control (dose: 32.0 mg/kg/injection, schedule: Q01DX010 (sc), vehicle: saline); -84 % of control (dose: 53.3 mg/kg/injection, schedule: Q04DX003 (sc), vehicle: saline); 16 % of control (dose: 60.0 mg/kg/injection, schedule: Q04DX003 (sc), vehicle: suspension in saline).

Consider `CNc1nc2c(N)ncnc2n1C1OC(CO)C(O)C1O` (centres undefined), for which the T/C was 103 % of control under setting [5]; 82 % of control under setting [6]; 57 % of control (dose: 100.0 mg/kg/injection, schedule: Q04DX003 (sc), vehicle: saline).

For `CCN1/C(=C/C=C/C=C\C=C\c2sc3ccc4ccccc4c3[n+]2CC)Sc2ccc3ccccc3c21`, the T/C by setting is: (dose: 6.25 mg/kg/injection, schedule: Q04DX003 (sc), vehicle: saline with Tween-80) 156 % of control; (dose: 12.5 mg/kg/injection, schedule: Q04DX003 (sc), vehicle: saline with Tween-80) 116 % of control; (dose: 25.0 mg/kg/injection, schedule: Q04DX003 (sc), vehicle: saline with Tween-80) 78 % of control; under setting [3], 122 % of control.

With `Cc1noc(N)c1N`, the T/C is, setting by setting: (dose: 600.0 mg/kg/injection, schedule: Q04DX003 (sc), vehicle: water) 106 % of control; (dose: 1200.0 mg/kg/injection, schedule: Q04DX003 (sc), vehicle: water) 94 % of control.

Turning to `O=C(Nc1ccccc1C(=O)O)c1cc([N+](=O)[O-])cc([N+](=O)[O-])c1`, the T/C was 86 % of control under setting [3]; 86 % of control under setting [4]; 100 % of control (dose: 200.0 mg/kg/injection, schedule: Q04DX003 (sc), vehicle: saline with Tween-80); 64 % of control (dose: 400.0 mg/kg/injection, schedule: Q04DX003 (sc), vehicle: saline with Tween-80).

As for `CCN(CC)CCC(=O)c1ccccc1`, the T/C (dose: 150.0 mg/kg/injection, schedule: Q04DX003 (sc), vehicle: saline with Tween-80) was 81 % of control.

For the molecule `O=C(NO)c1ccc(O)c(O)c1`, the T/C by setting is: (dose: 200.0 mg/kg/injection, schedule: Q04DX003 (sc), vehicle: distilled water + Tween-80) 103 % of control; (dose: 400.0 mg/kg/injection, schedule: Q04DX003 (sc), vehicle: distilled water + Tween-80) 74 % of control; (dose: 800.0 mg/kg/injection, schedule: Q04DX003 (sc), vehicle: distilled water + Tween-80) 78 % of control.

With `Cc1c2c(ccc3ccccc32)c[n+]2ccccc12`, the T/C was 59 % of control (dose: 3.13 mg/kg/injection, schedule: Q01DX010 (sc), vehicle: saline); 83 % of control (dose: 6.25 mg/kg/injection, schedule: Q01DX010 (sc), vehicle: saline); 38 % of control (dose: 12.5 mg/kg/injection, schedule: Q01DX010 (sc), vehicle: saline).

On to `C(COCCOCC1CO1)OCCOCC1CO1` (centres undefined), for which the T/C is, setting by setting: (dose: 100.0 mg/kg/injection, schedule: Q01DX010 (sc), vehicle: saline) 108 % of control; (dose: 200.0 mg/kg/injection, schedule: Q01DX010 (sc), vehicle: saline) 93 % of control; (dose: 400.0 mg/kg/injection, schedule: Q01DX010 (sc), vehicle: saline) 46 % of control.

For `NC(Cn1ccc(=O)c(O)c1)C(=O)O` (centres undefined), the T/C is 115 % of control (dose: 300.0 mg/kg/injection, schedule: Q04DX003 (sc), vehicle: suspension in saline); 104 % of control (dose: 600.0 mg/kg/injection, schedule: Q04DX003 (sc), vehicle: suspension in saline); 119 % of control (dose: 1200.0 mg/kg/injection, schedule: Q04DX003 (sc), vehicle: suspension in saline); 73 % of control (dose: 2400.0 mg/kg/injection, schedule: Q04DX003 (sc), vehicle: suspension in saline).

As to `COc1ccc(C(=O)C(CN(C)C)CN(C)C)cc1`, the T/C is 68 % of control (dose: 12.5 mg/kg/injection, schedule: Q04DX003 (sc), vehicle: saline); 113 % of control under setting [5]; 64 % of control under setting [6].

Take `OCCO`: the T/C runs as follows: (dose: 8.0 % in 0.5 ml injection vol, schedule: Q04DX003 (sc), vehicle: water) 121 % of control; (dose: 16.0 % in 0.5 ml injection vol, schedule: Q04DX003 (sc), vehicle: water) 108 % of control.

On to `C=C1C(=O)C23[C@H](O)C1CC[C@H]2[C@]12COC3(O)[C@@H](O)[C@@H]1C(C)(C)CC[C@@H]2O`, for which the T/C by setting is: (dose: 18.75 mg/kg/injection, schedule: Q04DX003 (sc), vehicle: Klucel (hydroxypropylcellulose) (HPC)) 105 % of control; under setting [1], 49 % of control.

On to `CN=C(NC#N)NCCSCc1nc[nH]c1C`, for which the T/C is 81 % of control under setting [2], 66 % of control under setting [7] and 73 % of control under setting [8].

With `Cc1ccc(S(=O)(=O)OCOS(=O)(=O)c2ccc(C)cc2)cc1`, the T/C is 79 % of control under setting [2]; 95 % of control under setting [7]; 74 % of control under setting [8]; 100 % of control (dose: 2400.0 mg/kg/injection, schedule: Q04DX003 (sc), vehicle: Klucel (hydroxypropylcellulose) (HPC)).

For `OCC1OC(n2cnc3c2NC=NC[C@H]3O)CC1O` (some centres undefined), the T/C runs as follows: (dose: 1.0 mg/kg/injection, schedule: Q01DX010 (sc), vehicle: water) 122 % of control; (dose: 2.0 mg/kg/injection, schedule: Q01DX010 (sc), vehicle: water) 68 % of control and 70 % of control and 91 % of control.

With `O=Cc1ccc([N+](=O)[O-])s1`, the T/C reads like this: (dose: 25.0 mg/kg/injection, schedule: Q01DX010 (sc), vehicle: saline with Tween-80) 94 % of control; (dose: 50.0 mg/kg/injection, schedule: Q01DX010 (sc), vehicle: saline with Tween-80) 105 % of control; (dose: 100.0 mg/kg/injection, schedule: Q01DX010 (sc), vehicle: saline with Tween-80) 81 % of control; (dose: 200.0 mg/kg/injection, schedule: Q01DX010 (sc), vehicle: saline with Tween-80) 30 % of control.

As to `CCCCCCCCCCS(=O)CC(CO)NC(=O)/C=C/c1c(C)[nH]c(=O)[nH]c1=O` (centres undefined), the T/C is 108 % of control (dose: 9.38 mg/kg/injection, schedule: Q04DX003 (sc), vehicle: distilled water + Tween-80) and 124 % of control (dose: 18.75 mg/kg/injection, schedule: Q04DX003 (sc), vehicle: distilled water + Tween-80).
